Measured values taken from US11478451B1, “Macrocyclic chlorine substituted indole derivatives” (Bayer Aktiengesellschaft, priority 2017, dated 2022).
Structures can show the parent of a compound that is named as a salt. Where two headings read alike, the source gives them in different places.

Columns and labels:
SUDHL5 cells [1] = test: Induction of caspase-3/7 activity (Caspase-Glo 3/7), SUDHL5; type: cell-based; settings: EC50, median, SUDHL5, 3 h treatment
Summary of the method: (§1)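 Apoptosis induction was gauged via caspase-3/7 activity (Caspase-Glo 3/7) following a 3 h compound incubation at 37 °C. Background from medium-only wells was removed from each value.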

HMC-1-8 cells = test: Antiproliferation assay (CellTiter-Glo, 72 h), HMC-1-8; type: cell-based; settings: IC50, median, HMC-1-8, 72 h, read-out: Antiproli HMC-1-8 [M] median
Summary of the method: (§2)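 Proliferation is determined by CellTiter-Glo luminescence following 72 h incubation with compound at 37 °C, relative to a time-zero plate measured at plating.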

SUDHL10 cells [2] = test: Induction of caspase-3/7 activity (Caspase-Glo 3/7), SUDHL10; type: cell-based; settings: EC50, median, SUDHL10, 3 h treatment
Summary of the method: as §1

SUDHL10 cells [3] = test: Induction of cytotoxicity (CellTiter-Glo, 5 h), SUDHL10; settings: SUDHL10, 5 h
AMO-1 cells = test: Antiproliferation assay (CellTiter-Glo, 72 h), AMO-1; type: cell-based; settings: IC50, median, AMO-1, 72 h, read-out: Antiproli AMO-1 [M] median
Summary of the method: as §2

SUDHL5 cells [4] = test: Antiproliferation assay (CellTiter-Glo, 72 h), SUDHL5; type: cell-based; settings: IC50, median, SUDHL5, 72 h, read-out: Antiproli SUDHL5 [M] (median)
Summary of the method: as §2

SUDHL5 cells [5] = test: Induction of cytotoxicity (CellTiter-Glo, 5 h), SUDHL5; settings: SUDHL5, 5 h
[6] = read-out: Cytotox SUDHL10 [M] (median), IC50, median
[7] = read-out: Cytotox SUDHL5 [M] (median), IC50, median
[8] = Homo sapiens, SU-DHL10, 5 h, read-out: Cytotox SUDHL10 [M] (median), IC50, median
[9] = Homo sapiens, SU-DHL-5, 5 h, read-out: Cytotox SUDHL5 [M] (median), IC50, median

| Structure (SMILES) | IC50 (HMC-1-8 cells; 72 h) | EC50 (SUDHL5 cells [1]) | EC50 (SUDHL10 cells [2]) | IC50 (SUDHL10 cells [3]; [6]) | IC50 (AMO-1 cells) | IC50 (SUDHL5 cells [4]) | IC50 (SUDHL5 cells [5]; [7]) | EC50 (SUDHL5 cells [1]; Homo sapiens, SU-DHL-5, 3 h) | EC50 (SUDHL10 cells [2]; Homo sapiens, SU-DHL10, 3 h) | IC50 (SUDHL10 cells [3]; [8]) | IC50 (SUDHL5 cells [4]; Homo sapiens, SU-DHL-5, 72 h) | IC50 (SUDHL5 cells [5]; [9]) | other results |
| --- | --- | --- | --- | --- | --- | --- | --- | --- | --- | --- | --- | --- | --- |
| Cc1c2c(nn1C)COCC1CC1Cn1c(C(=O)O)c(CCCOc3cccc4ccccc34)c3ccc(Cl)c-2c31 (single isomer, unassigned) [Example 83, 3-chloro-4,5-dimethyl-14-{3-[(naphthalen-1-yl)oxy]propyl}-5,7,9a,10,10a,11-hexahydro-9H-cyclopropa[3,4]pyrazolo[4′,3′:9,10][1,6]oxazacycloundecino[8,7,6-hi]indole-13-carboxylic acid] | 7.4e-06 M |  |  |  |  |  |  |  |  |  |  |  | EC50 (SUDHL5 cells [1]; listed as 083): 220 nM; EC50 (SUDHL10 cells [2]; listed as 083): 410 nM; IC50 (SUDHL10 cells [3]; read-out: Cytotox SUDHL10 [M] (median), IC50, median, listed as 083): 5.9e-07 M; IC50 (AMO-1 cells; listed as 083): 3.8e-07 M; IC50 (SUDHL5 cells [4]; listed as 083): 5.2e-07 M; IC50 (SUDHL5 cells [5]; read-out: Cytotox SUDHL5 [M] (median), IC50, median, listed as 083): 5.8e-07 M |
| CCc1c2c(nn1C)CN(C)CCCn1c(C(=O)O)c(CCCOc3cccc4cc(F)ccc34)c3ccc(Cl)c-2c31 [Example 113, (+)-12-chloro-11-ethyl-1-{3-[(6-fluoronaphthalen-1-yl)oxy]propyl}-7,10-dimethyl-4,5,6,7,8,10-hexahydropyrazolo[3′,4′:7,8][1,5]diazecino[9,10,1-hi]indole-2-carboxylic acid N-ethylethanamine salt] |  | 270 nM | 360 nM | 6.5e-07 M | 3.2e-07 M | 2.1e-06 M | 3e-07 M |  |  |  |  |  | IC50 (HMC-1-8 cells): 3.7e-06 M |
| Cc1c2c(nn1C)COCC(F)(F)CCn1c(C(=O)O)c(CCCOc3cccc4cc(F)ccc34)c3ccc(Cl)c-2c31 (single isomer, unassigned) [Example 92, 4-chloro-12,12-difluoro-7-{3-[(6-fluoronaphthalen-1-yl)oxy]propyl}-2,3-dimethyl-2,10,11,12,13,15-hexahydropyrazolo[4′,3′:9,10][1,6]oxazacycloundecino[8,7,6-hi]indole-8-carboxylic acid] | 6.8e-06 M |  |  |  |  |  |  | 280 nM | 590 nM | 8.1e-07 M | 8.2e-07 M | 3.4e-07 M | IC50 (AMO-1 cells; Homo sapiens, AMO1, 72 h): 5.4e-07 M |
| CCc1c2c(nn1C)CCCN(C)CCn1c(C(=O)O)c(CCCOc3cccc4cc(F)ccc34)c3ccc(Cl)c-2c31 (single isomer, unassigned) [Example 116, (+)-4-chloro-3-ethyl-7-{3-[(6-fluoronaphthalen-1-yl)oxy]propyl}-2,12-dimethyl-10,11,12,13,14,15-hexahydro-2H-pyrazolo[3′,4′:8,9][1,4]diazacycloundecino[10,11,1-hi]indole-8-carboxylic acid] | 2.3e-06 M | 290 nM | 290 nM | 3.4e-07 M | 2.1e-07 M | 3.4e-07 M | 4.1e-07 M |  |  |  |  |  |  |
| CCc1c2c(nn1C)COCC(F)(F)CCn1c(C(=O)O)c(CCCOc3cccc4cc(F)ccc34)c3ccc(Cl)c-2c31 (single isomer, unassigned) [Example 85, (−)-4-chloro-3-ethyl-12,12-difluoro-7-{3-[(6-fluoronaphthalen-1-yl)oxy]propyl}-2-methyl-2,10,11,12,13,15-hexahydropyrazolo[4′,3′:9,10][1,6]oxazacycloundecino[8,7,6-hi]indole-8-carboxylic acid] | 3.3e-06 M |  |  |  |  |  |  |  | 320 nM | 9.8e-07 M |  |  | EC50 (SUDHL5 cells [1]; listed as 085): 180 nM; IC50 (AMO-1 cells; listed as 085): 4.9e-07 M; IC50 (SUDHL5 cells [4]; listed as 085): 3.6e-07 M; IC50 (SUDHL5 cells [5]; read-out: Cytotox SUDHL5 [M] (median), IC50, median, listed as 085): 3e-07 M |
| CCc1c2c(nn1C)CCCCCCn1c(C(=O)O)c(CCCOc3cccc4ccccc34)c3ccc(Cl)c-2c31 (single isomer, unassigned; enantiomer 2) [Example 53, (−) 4-chloro-3-ethyl-2-methyl-7-{3-[(naphthalen-1-yl)oxy]propyl}-10,11,12,13,14,15-hexahydro-2H-pyrazolo[4′,3′:4,5]azacycloundecino[3,2,1-hi]indole-8-carboxylic acid-N-ethylethanamine salt—Enantiomer 2] | 6.9e-06 M | 660 nM | 700 nM | 9.7e-07 M | 1.5e-06 M | 7.4e-07 M | 4.8e-07 M |  |  |  |  |  |  |
| CCc1c2c(nn1C)CN(C)CC(F)(F)CCn1c(C(=O)O)c(CCCOc3cccc4cc(F)ccc34)c3ccc(Cl)c-2c31 (racemic) [Example 126, (rac)-4-Chloro-3-ethyl-12,12-difluoro-7-{3-[(6-fluoro-1-naphthyl)oxy]propyl}-2,14-dimethyl-10,11,12,13,14,15-hexahydro-2H-pyrazolo[3′,4′:8,9][1,6]diazacycloundecino[10,11,1-hi]indol-14-ium-8-carboxylate] | 2.2e-06 M |  |  |  |  |  |  | 420 nM | 720 nM | 8.7e-07 M | 8.8e-07 M | 5e-07 M | IC50 (AMO-1 cells; Homo sapiens, AMO1, 72 h): 3.7e-07 M |
| CCc1c2c(nn1C)COCCC(F)(F)Cn1c(C(=O)O)c(CCCOc3cccc4cc(F)ccc34)c3ccc(Cl)c-2c31 (single isomer, unassigned) [Example 97, (−)-4-chloro-3-ethyl-11,11-difluoro-7-{3-[(6-fluoronaphthalen-1-yl)oxy]propyl}-2-methyl-2,10,11,12,13,15-hexahydropyrazolo[4′,3′:9,10][1,6]oxazacycloundecino[8,7,6-hi]indole-8-carboxylic acid] |  |  |  |  |  |  |  |  |  |  |  |  | EC50 (SUDHL5 cells [1]; listed as 097): 320 nM; IC50 (HMC-1-8 cells; listed as 097): 2.2e-06 M; EC50 (SUDHL10 cells [2]; listed as 097): 450 nM; IC50 (SUDHL10 cells [3]; read-out: Cytotox SUDHL10 [M] (median), IC50, median, listed as 097): 4.2e-07 M; IC50 (AMO-1 cells; listed as 097): 2.2e-07 M; IC50 (SUDHL5 cells [4]; listed as 097): 5.5e-07 M; IC50 (SUDHL5 cells [5]; read-out: Cytotox SUDHL5 [M] (median), IC50, median, listed as 097): 4.4e-07 M |
| CCc1c2c(nn1C)COCC1CC1Cn1c(C(=O)O)c(CCCOc3cccc4cc(F)ccc34)c3ccc(Cl)c-2c31 (single isomer, unassigned; (+)) [Example 107] | 2.4e-06 M | 390 nM | 470 nM |  | 5.5e-07 M | 7.2e-07 M | 4.6e-07 M |  |  | 5.9e-07 M |  |  |  |
| CCc1c2c(nn1C)CN(C)CC(F)(F)CCn1c(C(=O)O)c(CCCOc3cccc4cc(F)ccc34)c3ccc(Cl)c-2c31 (single isomer, unassigned) [Example 127, 4-chloro-3-ethyl-12,12-difluoro-7-{3-[(6-fluoronaphthalen-1-yl)oxy]propyl}-2,14-dimethyl-10,11,12,13,14,15-hexahydro-2H-pyrazolo[3′,4′:8,9][1,6]diazacycloundecino[10,11,1-hi]indole-8-carboxylic acid] | 2.2e-06 M | 280 nM | 480 nM | 3.8e-07 M | 5.8e-07 M | 4.3e-07 M | 2.4e-07 M |  |  |  |  |  |  |
| CCc1c2c(nn1C)CN(C(=O)OCCC1CCOCC1)CCCCn1c(C(=O)O)c(CCCOc3cccc4cc(F)ccc34)c3ccc(Cl)c-2c31 [Example 138, (rac)-4-chloro-3-ethyl-7-{3-[(6-fluoronaphthalen-1-yl)oxy]propyl}-2-methyl-14-{[2-(oxan-4-yl)ethoxy]carbonyl}-10,11,12,13,14,15-hexahydro-2H-pyrazolo[3′,4′:8,9][1,6]diazacycloundecino[10,11,1-hi]indole-8-carboxylic acid] | 3e-06 M |  |  |  |  |  |  | 280 nM | 380 nM | 6e-07 M | 3.5e-07 M | 2.4e-07 M | IC50 (AMO-1 cells; Homo sapiens, AMO1, 72 h): 4.7e-07 M |
| CCc1c2c(nn1C)COCC1(CCn3c(C(=O)O)c(CCCOc4cccc5cc(F)ccc45)c4ccc(Cl)c-2c43)CC1 (racemic) [Example 109, (rac)-4′-chloro-3′-ethyl-7′-{3-[(6-fluoronaphthalen-1-yl)oxy]propyl}-2′-methyl-2′,10′,11′,15′-tetrahydro-13′H-spiro[cyclopropane-1,12′-pyrazolo[4′,3′:9,10][1,6]oxazacycloundecino[8,7,6-hi]indole]-8′-carboxylic acid] | 4.3e-06 M |  |  |  |  |  |  | 440 nM | 290 nM | 2.8e-07 M | 5.5e-07 M | 5.9e-07 M |  |
